{"source": "patent US20190127456A1", "about": "“METHODS OF TREATING IDIOPATHIC PULMONARY FIBROSIS” (FibroGen, Inc., priority 2017, published 2019)", "key": {"[1]": {"test_system": "radiation-induced lung fibrosis", "experiment": "Mouse radiation-induced lung fibrosis model: lung function by blood gas analysis", "type": "in vivo", "conditions": "blood gas analysis at 24 weeks, compared to RT with no treatment; data not shown", "protocol": "The objective of this study was to compare the activity of pamrevlumab monotherapy to either pirfenidone or nintedanib alone, and to evaluate the potential for enhanced activity of the combined agents. […] In this study, mice received thoracic irradiation (RT), followed by the therapeutic administration of the agents at 16 weeks post-irradiation when lung remodeling was evident by HRCT. After 8 weeks of drug treatment, lung density and volume were assessed by HRCT, lung function was assessed by blood gas analysis, and mice were sacrificed for histologic and gene expression analysis. C57B1/6 mice were irradiated with 14.5 Gy photons; full thorax, single dose. Treatment with therapeutic agent(s) (pamrevlumab, pirfenidone, and/or nintedanib) was initiated 16 weeks post-irradiation and continued for 8 weeks. Pamrevlumab (FG) was given IP, BIW, at 40 mg/kg; pirfenidone (PF) was given PO in chow, QD, at 300 mg/kg; nintedanib (ND) was given PO in chow, QD, at 100 mg/kg. Treatment with each agent alone, with combinations of two, and with a triple combination were carried out. Controls included non-irradiated mice, mice that were irradiated and not treated, and mice that were irradiated and given human IgG. […] The effect of the treatments on lung function was assessed by blood gas analysis (data not shown)."}, "[2]": {"test_system": "radiation-induced lung fibrosis", "experiment": "Mouse radiation-induced lung fibrosis model: lung volume by HRCT", "type": "in vivo", "conditions": "14.5 Gy irradiated mice, treated 8 weeks from week 16, measured at 24 weeks; FIG. 4", "protocol": "The objective of this study was to compare the activity of pamrevlumab monotherapy to either pirfenidone or nintedanib alone, and to evaluate the potential for enhanced activity of the combined agents. […] In this study, mice received thoracic irradiation (RT), followed by the therapeutic administration of the agents at 16 weeks post-irradiation when lung remodeling was evident by HRCT. After 8 weeks of drug treatment, lung density and volume were assessed by HRCT, lung function was assessed by blood gas analysis, and mice were sacrificed for histologic and gene expression analysis. C57B1/6 mice were irradiated with 14.5 Gy photons; full thorax, single dose. Treatment with therapeutic agent(s) (pamrevlumab, pirfenidone, and/or nintedanib) was initiated 16 weeks post-irradiation and continued for 8 weeks. Pamrevlumab (FG) was given IP, BIW, at 40 mg/kg; pirfenidone (PF) was given PO in chow, QD, at 300 mg/kg; nintedanib (ND) was given PO in chow, QD, at 100 mg/kg. Treatment with each agent alone, with combinations of two, and with a triple combination were carried out. Controls included non-irradiated mice, mice that were irradiated and not treated, and mice that were irradiated and given human IgG. Endpoint measurements were taken at 24 weeks for HRCT (lung structure), blood gas analysis (lung function), histology and gene expression analysis. […]"}, "IPF": {"test_system": "IPF", "experiment": "Phase two study in IPF patients: St. George's Respiratory Questionnaire (SGRQ)", "type": "in vivo, human", "conditions": "48 weeks treatment, compared with placebo, FIGS. 5A-5D", "protocol": "A double-blind, placebo-controlled Phase two study was conducted in which 103 patients, randomized (1:1) to receive pamrevlumab or placebo, were treated for 48 weeks. Patients' self-administered the Saint George's Respiratory Questionnaire (SGRQ) to assess changes in health-related quality of life parameters over the course of the study. This questionnaire was developed for patients with chronic airflow limitation and the results correlate well with established measures of symptom level, disease activity and disability. Patients completed the SGRQ on Day 1 (baseline) and every 12 weeks thereafter during the 48-week treatment period. The SGRQ comprises three domains (symptoms, activity, and impact) with the score for each domain ranging from 0 to 100, with higher scores indicating worse health-related quality of life (Jones P W, et al. Respir Med 1991; 85:Suppl B:25-31; Barr J T et al. Clin Ther 2000; 22:1121-45)."}}, "data": [{"substance": "pamrevlumab", "values": [{"measurement": "O2 saturation", "setting": "[1]", "result": "normalized O2 saturation"}, {"measurement": "radiation-induced lung volume decrease", "setting": "[2]", "result": "significantly inhibited radiation-induced lung volume decrease from baseline"}, {"measurement": "SGRQ all domains (symptoms, activity, impact) and total score, change from baseline", "setting": "IPF", "result": "improvement (lower values)"}]}]}
